Results on nine molecules are retold here after US20220046923A1, “HERBICIDAL CINNOLINIUM COMPOUNDS” (SYNGENTA CROP PROTECTION AG, priority 2018, published 2022).

Holding throughout (assay): Post-emergence efficacy, glasshouse spray test
Holding throughout (type): in vivo

Experiment [1] concerns Digitaria sanguinalis (DIGSA). Conditions: evaluated after 13 days; for pest or weed control at 500 g/ha / pest or weed control at 1000 g/ha: Digitaria sanguinalis, post-emergence, 312 h, read-out: Control of weed species DIGSA after post-emergence application (100=total damage to plant; 0=no damage to plant); for pest or weed control at 500 g/ha: application rate 500 g/Ha; for pest or weed control at 1000 g/ha / Control of weed species DIGSA after post-emergence application (100=total damage to plant; 0=no damage to plant): application rate 1000 g/Ha. The method, then:
(§1) Seeds of a variety of test species were sown in standard soil in pots. After cultivation for 14 days (post-emergence) under controlled conditions in a glasshouse (at 24/16° C., day/night; 14 hours light; 65% humidity), the plants were sprayed with an aqueous spray solution derived from the dissolution of the technical active ingredient formula (I) in a small amount of acetone and a special solvent and emulsifier mixture referred to as IF50 (11.12% Emulsogen EL360 TM+44.44% N-methylpyrrolidone+44.44% Dowanol DPM glycol ether), to create a 50 g/l solution which was then diluted to required concentration using 0.25% or 1% Empicol ESC70 (Sodium lauryl ether sulphate)+1% ammonium sulphate as diluent. The test plants were then grown in a glasshouse under controlled conditions (at 24/16° C., day/night; 14 hours light; 65% humidity) and watered twice daily. After 13 days the test was evaluated (100=total damage to plant; 0=no damage to plant).
(§2) Ipomoea hederacea (IPOHE), Euphorbia heterophylla (EPHHL), Chenopodium album (CHEAL), Amaranthus palmeri (AMAPA), Lolium perenne (LOLPE), Digitaria sanguinalis (DIGSA), Eleusine indica (ELEIN), Echinochloa crus-galli (ECHCG), Setaria faberi (SETFA)

For experiment [2], the system named is Ipomoea hederacea (IPOHE). The settings on record: evaluated after 13 days; for pest or weed control at 500 g/ha / pest or weed control at 1000 g/ha: Ipomoea hederacea, post-emergence, 312 h, read-out: Control of weed species IPOHE after post-emergence application (100=total damage to plant; 0=no damage to plant); for pest or weed control at 500 g/ha: application rate 500 g/Ha; for pest or weed control at 1000 g/ha / Control of weed species IPOHE after post-emergence application (100=total damage to plant; 0=no damage to plant): application rate 1000 g/Ha. The method, then:
as §1, §2

Another experiment relates to Lolium perenne (LOLPE). Conditions: evaluated after 13 days; for pest or weed control at 500 g/ha / pest or weed control at 1000 g/ha: Lolium perenne, post-emergence, 312 h, read-out: Control of weed species LOLPE after post-emergence application (100=total damage to plant; 0=no damage to plant); for pest or weed control at 500 g/ha: application rate 500 g/Ha; for pest or weed control at 1000 g/ha / Control of weed species LOLPE after post-emergence application (100=total damage to plant; 0=no damage to plant): application rate 1000 g/Ha. The procedure: as §1, §2

Experiment [3] deals with Euphorbia heterophylla (EPHHL). Conditions: evaluated after 13 days; for pest or weed control at 500 g/ha / pest or weed control at 1000 g/ha: Euphorbia heterophylla, post-emergence, 312 h, read-out: Control of weed species EPHHL after post-emergence application (100=total damage to plant; 0=no damage to plant); for pest or weed control at 500 g/ha: application rate 500 g/Ha; for pest or weed control at 1000 g/ha / Control of weed species EPHHL after post-emergence application (100=total damage to plant; 0=no damage to plant): application rate 1000 g/Ha. The method, then: as §1, §2

The test system of experiment [4] is Chenopodium album (CHEAL). Conditions: evaluated after 13 days; for pest or weed control at 500 g/ha / pest or weed control at 1000 g/ha: Chenopodium album, post-emergence, 312 h, read-out: Control of weed species CHEAL after post-emergence application (100=total damage to plant; 0=no damage to plant); for pest or weed control at 500 g/ha: application rate 500 g/Ha; for pest or weed control at 1000 g/ha / Control of weed species CHEAL after post-emergence application (100=total damage to plant; 0=no damage to plant): application rate 1000 g/Ha. The procedure: as §1, §2

For another experiment, the system named is Setaria faberi (SETFA). The settings on record: evaluated after 13 days; for pest or weed control at 500 g/ha / pest or weed control at 1000 g/ha: Setaria faberi, post-emergence, 312 h, read-out: Control of weed species SETFA after post-emergence application (100=total damage to plant; 0=no damage to plant); for pest or weed control at 500 g/ha: application rate 500 g/Ha; for pest or weed control at 1000 g/ha / Control of weed species SETFA after post-emergence application (100=total damage to plant; 0=no damage to plant): application rate 1000 g/Ha. The method, then:
as §1, §2

Experiment [5] concerns Echinochloa crus-galli (ECHCG). The settings on record: evaluated after 13 days; for pest or weed control at 500 g/ha / pest or weed control at 1000 g/ha: Echinochloa crus-galli, post-emergence, 312 h, read-out: Control of weed species ECHCG after post-emergence application (100=total damage to plant; 0=no damage to plant); for pest or weed control at 500 g/ha: application rate 500 g/Ha; for pest or weed control at 1000 g/ha / Control of weed species ECHCG after post-emergence application (100=total damage to plant; 0=no damage to plant): application rate 1000 g/Ha. The procedure:
as §1, §2

Experiment [6] concerns Amaranthus palmeri (AMAPA). The settings on record: evaluated after 13 days; for pest or weed control at 500 g/ha / pest or weed control at 1000 g/ha: Amaranthus palmeri, post-emergence, 312 h, read-out: Control of weed species AMAPA after post-emergence application (100=total damage to plant; 0=no damage to plant); for pest or weed control at 500 g/ha: application rate 500 g/Ha; for pest or weed control at 1000 g/ha / Control of weed species AMAPA after post-emergence application (100=total damage to plant; 0=no damage to plant): application rate 1000 g/Ha. The method, then:
as §1, §2

The subject of another experiment is Eleusine indica (ELEIN). The settings on record: evaluated after 13 days; for pest or weed control at 500 g/ha / pest or weed control at 1000 g/ha: Eleusine indica, post-emergence, 312 h, read-out: Control of weed species ELEIN after post-emergence application (100=total damage to plant; 0=no damage to plant); for pest or weed control at 500 g/ha: application rate 500 g/Ha; for pest or weed control at 1000 g/ha / Control of weed species ELEIN after post-emergence application (100=total damage to plant; 0=no damage to plant): application rate 1000 g/Ha. The procedure: as §1, §2

In the case of `CNC(=O)c1c[n+](CCS(=O)(=O)[O-])nc2ccccc12` [Compound A13], the pest or weed control at 500 g/ha in experiment [1] was found to be 50%; in [2], 20%; with Lolium perenne (LOLPE) it was 20%; in [3], 20%; in [4], 50%; in the experiment on Setaria faberi (SETFA) it was 60%. The pest or weed control at 500 g/ha came to 50% in [5], 40% in [6] and 30% in the experiment with Eleusine indica (ELEIN).

For the molecule `CNC(=O)c1c[n+](CCC(=O)O)nc2ccccc12` [Compound A14], the pest or weed control at 500 g/ha in experiment [1] is 80%; in experiment [2], 50%; in the experiment with Lolium perenne (LOLPE), 30%; in experiment [3], 60%; in [4] it was 90%; in the experiment on Setaria faberi (SETFA) it was 80%. The pest or weed control at 500 g/ha in experiment [5] was found to be 70%; in experiment [6], 100%; with Eleusine indica (ELEIN), 100%.

As for `CS(=O)(=O)NC(=O)C[n+]1ccc2ccccc2n1` [Compound A15, 2-cinnolin-2-ium-2-yl-N-methylsulfonyl-acetamide bromide], the pest or weed control at 1000 g/ha was found to be 70% in experiment [1]; 80% in experiment [2]; 60% in the experiment on Lolium perenne (LOLPE); 90% in experiment [3]; 80% in experiment [4]; 60% in the experiment with Setaria faberi (SETFA). Besides, the pest or weed control at 1000 g/ha in experiment [5] is 40%; in experiment [6] it was 90%; in the experiment with Eleusine indica (ELEIN), 80%.

On to `COC(=O)CCC[n+]1ccc2ccccc2n1` [Compound A16, methyl 4-cinnolin-2-ium-2-ylbutanoate 2,2,2-trifluoroacetate], for which the pest or weed control at 1000 g/ha in experiment [1] worked out at 40%; in experiment [2] it was 10%; with Lolium perenne (LOLPE) it was 20%; in experiment [3] it was 40%; in [4], 70%; in the experiment on Setaria faberi (SETFA) it was 50%. Also, the values for the pest or weed control at 1000 g/ha (in experiment [5]; in experiment [6]; in the experiment with Eleusine indica (ELEIN)) were 50%, 50% and 60%, respectively.

Turning to `O=C(O)CCC[n+]1ccc2ccccc2n1` [Compound A17], the “Control of weed species DIGSA after post-emergence application (100=total damage to plant; 0=no damage to plant)” value in [1] is 40. For the same molecule, in experiment [2], the “Control of weed species IPOHE after post-emergence application (100=total damage to plant; 0=no damage to plant)” value is recorded as 30. Further, the “Control of weed species LOLPE after post-emergence application (100=total damage to plant; 0=no damage to plant)” value in the experiment with Lolium perenne (LOLPE) is reported as 40. The “Control of weed species EPHHL after post-emergence application (100=total damage to plant; 0=no damage to plant)” value in [3] was 40. In addition, the “Control of weed species CHEAL after post-emergence application (100=total damage to plant; 0=no damage to plant)” value in experiment [4] came to 60. In the experiment with Setaria faberi (SETFA), the “Control of weed species SETFA after post-emergence application (100=total damage to plant; 0=no damage to plant)” value was determined as 40. Also, the “Control of weed species ECHCG after post-emergence application (100=total damage to plant; 0=no damage to plant)” value in experiment [5] is given as 30. In addition, the “Control of weed species AMAPA after post-emergence application (100=total damage to plant; 0=no damage to plant)” value in experiment [6] was 70. Further, in the experiment on Eleusine indica (ELEIN), the “Control of weed species ELEIN after post-emergence application (100=total damage to plant; 0=no damage to plant)” value is on record as 60.

On to `N[C@@H](CCC[n+]1ccc2ccccc2n1)C(=O)[O-].O=C(O)C(F)(F)F` [Compound A18], for which, in [1], the “Control of weed species DIGSA after post-emergence application (100=total damage to plant; 0=no damage to plant)” value stood at 40. Besides, in [2], the “Control of weed species IPOHE after post-emergence application (100=total damage to plant; 0=no damage to plant)” value stood at 30. The “Control of weed species LOLPE after post-emergence application (100=total damage to plant; 0=no damage to plant)” value in the experiment on Lolium perenne (LOLPE) is reported as 30. In [3], the “Control of weed species EPHHL after post-emergence application (100=total damage to plant; 0=no damage to plant)” value was found to be 20. Also, the “Control of weed species CHEAL after post-emergence application (100=total damage to plant; 0=no damage to plant)” value in experiment [4] worked out at 100. For the same molecule, the “Control of weed species SETFA after post-emergence application (100=total damage to plant; 0=no damage to plant)” value in the experiment with Setaria faberi (SETFA) was determined as 20. For the same molecule, the “Control of weed species ECHCG after post-emergence application (100=total damage to plant; 0=no damage to plant)” value in [5] worked out at 30. In [6], the “Control of weed species AMAPA after post-emergence application (100=total damage to plant; 0=no damage to plant)” value was found to be 60. Moreover, the “Control of weed species ELEIN after post-emergence application (100=total damage to plant; 0=no damage to plant)” value with Eleusine indica (ELEIN) is 90.

Take `O=S(=O)([N-]CC[n+]1ccc2ccccc2n1)C(F)(F)F` [Compound A19, 2-cinnolin-2-ium-2-ylethyl(trifluoromethylsulfonyl)azanide]: the pest or weed control at 1000 g/ha in experiment [1] was found to be 10%; in experiment [2] it was 30%; with Lolium perenne (LOLPE) it was 0%; in [3], 20%; in experiment [4], 10%; in the experiment on Setaria faberi (SETFA), 10%. The pest or weed control at 1000 g/ha was 10% in experiment [5], 10% in [6] and 0% with Eleusine indica (ELEIN).

With `c1ccc2n[n+](Cc3nnn[n-]3)ccc2c1` [Compound A20], the pest or weed control at 1000 g/ha worked out at 20% in experiment [1]; 0% in experiment [2]; 10% in the experiment with Lolium perenne (LOLPE); 70% in experiment [3]; 10% in [4]; 10% in the experiment on Setaria faberi (SETFA). For the same molecule, the pest or weed control at 1000 g/ha stood at 20% in [5], 30% in [6] and 20% in the experiment with Eleusine indica (ELEIN).

`CN(C)S(=O)(=O)[N-]C(=O)C[n+]1ccc2ccccc2n1` [Compound A21, (2-cinnolin-2-ium-2-ylacetyl)-(dimethylsulfamoyl)azanide]: the pest or weed control at 1000 g/ha in [1] worked out at 10%; in experiment [2], 20%; in the experiment on Lolium perenne (LOLPE) it was 0%; in experiment [3], 70%; in experiment [4], 50%; with Setaria faberi (SETFA), 0%. Besides, the figures for the pest or weed control at 1000 g/ha (in experiment [5]; in experiment [6]; with Eleusine indica (ELEIN)) were 30%, 10% and 0%, respectively.
